The subject of experiment [1] is patients with R/R B-cell malignancies. Put plainly: phase 1 clinical study: efficacy (response, ALC, SPD). Format: in vivo, human. As to the method: A phase 1 study (dose escalation and safety expansion) to determine safety, tolerability, maximum tolerated dose ([…]), and recommended phase 2 dose (RP2D) of Compound 1 in patients with R/R B-cell malignancies was conducted. (Table 6-1A).
Part 1 Monotherapy Ramp-Up Schedule and Dose Finding • 1) Cohort 1A: Cohort 1A consists of patients with relapsed/refractory B-cell non-Hodgkin lymphoma (R/R B-cell NHL) excluding mantle cell lymphoma (MCL). These patients are expected to be at low risk of tumor lysis syndrome (low TLS risk), and are treated with a short ramp-up schedule reaching target dose on Day 3. Patients in this cohort receive escalating doses of Compound 1 monotherapy: 40 mg, 80 mg, 160 mg, 320 mg, and 640 mg (unless adjusted by Safety Monitoring Committee [SMC] recommendation). • 2) Cohort 1B is opened, when ≥1 tolerable dose level of Cohort 1A was determined. It consists of patients with low-tumor-burden R/R CLL/SLL. This cohort pursues dose finding, including evaluation of both ramp-up schedule and target dose. Patients increase the ramp-up dose weekly until the target dose for the cohort is reached. The ramp-up steps is 1 mg, 2 mg, 5 mg, 10 mg, 20 mg, 40 mg, 80 mg, 160 mg, 320 mg, and 640 mg (unless adjusted by SMC recommendation). […]. • 3) Cohort 1C: This Cohort consists of patients with high-tumor-burden R/R chronic lymphocytic leukemia/small lymphocytic lymphoma (R/R CLL/SLL). This cohort will not be dosed until the RP2D for Cohort 1B is established. The objective of this cohort is to confirm, in patients with high-tumor-burden CLL/SLL, the safety of the monotherapy ramp-up schedule and RP2D established in patients with low-tumor-burden CLL/SLL. • 4) Cohort 1D: This Cohort consists of patients with R/R MCL. This cohort will not be dosed until the RP2D for Cohort 1B is established. The objective of this cohort is to confirm, in patients with R/R MCL, the safety of the monotherapy ramp-up schedule and RP2D established in patients with low tumor-burden CLL/SLL. • Cohort 1D′: This Cohort consists of patients with R/R MCL. And, the target dosage are 160 and 320 mg. • 5) Cohort 1E: This Cohort consists of patients with R/R waldenstrom macroglobulinemia (R/R WM). This cohort will not be dosed until the RP2D for Cohort 1B is established. The objective of this cohort is to confirm, in patients with R/R WM, the safety of the monotherapy ramp-up schedule and RP2D established in patients with low tumor-burden CLL/SLL.
The study also includes dose escalation and expansion cohorts for the combination of Compound 1 and Bruton tyrosine kinase (BTK) inhibitor Zanubrutinib in patients with selected B-cell malignancy, such as CLL/SLL and mantle cell lymphoma (MCL). (Table 6-2A). Patients in the combination therapy cohorts receive Zanubrutinib 320 mg daily (160 mg twice a day [BID] or 320 mg once a day [QD]) beginning 8-12 weeks before Compound 1 is introduced. And, the corresponding dose-escalation and expansion are conducted in Part 3 and Part 4):
Dose finding is pursued in Patients with R/R CLL/SLL or R/R MCL who are Bel-2-inhibitor naive and have not progressed on a BTK inhibitor, including evaluation of ramp-up schedule and target dose of Compound 1 when used in combination with Zanubrutinib. The Compound 1 dose vary but the Zanubrutinib dose is fixed at 320 mg/day (160 mg twice daily or 320 mg once daily). The ramp-up dose increases weekly until the target dose for the cohort is reached. The ramp-up steps for Compound 1 are 1 mg, 2 mg, 5 mg, 10 mg, 20 mg, 40 mg, 80 mg, 160 mg, 320 mg, and 640 mg (unless adjusted by SMC recommendation).
In all Cohorts of the phase 1 study, Compound 1 is orally administrated once daily (QD). […]

Experiment [2] concerns RS4;11 Bcl-2G101V KI acute lymphoblastic leukemia (ALL) subcutaneous xenograft. The experiment in a line: RS4;11 Bcl-2G101V KI ALL subcutaneous xenograft model. It is filed as in vivo, NCG mice. Here is the method:
The RS4;11 Bcl-2G101V KI cells are of acute lymphoblastic leukemia (ALL) origin and were screened in house. Cells were grown in RPMI 1640 medium (Corning, Cat #10-040-CVR), supplemented with 10% (v/v) fetal bovine serum (Gibco, Cat #10099-141C), and 100 μg/mL of penicillin and streptomycin (Gibco, Cat #15140-122). […] Five to six-week-old female NCG mice were supplied by GemPharmatech Co., Ltd, Jiangsu, China. All animals were maintained under specific pathogen free (SPF) “full barrier” condition with free access to food and water. Mice were group-housed under a 12 h light:dark cycle (lights on at 08:00 h), at a temperature of 20-26° C. and 37-62% humidity in WC cages (Lingyunboji (Beijing) Technology Co., Ltd.). Mice were fed with complete granulated feed with Co60 radio sterilization (Beijing Ke Ao Xie Li Feed Co., Ltd.).
Re-suspended cells were placed on ice prior to inoculation. The right front flank region of each mouse was cleaned with 75% ethanol prior to cell inoculation. Each animal was injected subcutaneously with 1×10^7 cells in 200 μL of cell suspension in the right front flank via a 26-gauge needle. After implantation, primary tumor volume was measured in two dimensions using a caliper.
Animals were randomly assigned into 7 groups with 8 mice per group according to body weight and tumor volume (around 300 mm^3). The groups consisted of vehicle group, 15, 50 and 100 mg/kg of venetoclax with QD dosing, 15, 50 and 100 mg/kg of Compound 1 with QD dosing. Treatments were administered by oral gavage (p.o.) in a volume of […]. Body weight was assessed immediately before dosing and volume dosed was adjusted accordingly.
Individual body weight was recorded twice weekly, with mice being monitored daily for clinical signs of toxicity for the duration of the study. Mice were euthanized using carbon dioxide when their tumor volume reached 2,000 mm^3, the tumor was ulcerated, or body weight loss exceeded 20%.
Tumor volume was calculated using the formula: V=0.5×(a×b^2) where a and b are the long and short diameters of the tumor, respectively.

“Also recorded” adds a separate entry of the source.

Results on 2 molecules are retold here after patent US20240122932A1, “Methods of Treating B-Cell Malignancy Using Bcl-2 Inhibitor” (BeiGene Switzerland GmbH, priority 2021, published 2024).

On to `CC(C)c1ccccc1[C@@H]1CCCN1C1CC2(CCN(c3ccc(C(=O)NS(=O)(=O)c4ccc(NCC5CCC(C)(O)CC5)c([N+](=O)[O-])c4)c(Oc4cnc5[nH]ccc5c4)c3)CC2)C1` (stereo partly drawn) [Compound 1, 2-((1H-pyrrolo[2,3-b]pyridin-5-yl)oxy)-N-((4-((((1r,4r)-4-hydroxy-4-methylcyclohexyl)methyl)amino)-3-nitrophenyl)sulfonyl)-4-(2-((S)-2-(2-isopropylphenyl)pyrrolidin-1-yl)-7-azaspiro[3.5]nonan-7-yl)benzamide], for which the “early response in CLL” value in experiment [1] (CLL/SLL monotherapy, 36-patient data, 80-mg dose level, del (17p) CLL) was 1 of 4 patients with CLL reached first response assessment and achieved partial response. Moreover, the “patients achieving a response” value in experiment [1] (NHL, monotherapy, 36-patient data, about 5 months of treatment duration, including 1 CR) was determined as 2 patients. In addition, the “patients achieving partial response with lymphocytosis (PR-L) or better” value in experiment [1] (monotherapy, R/R CLL/SLL, four of 6 patients, at either 80 or 160 mg) was 67%. Further, the patients responded in experiment [1] (monotherapy, R/R NHL, two of 20 patients, 1 PR at 160 mg and 1 CR at 320 mg) worked out at 10%. For the same molecule, in experiment [1] (monotherapy, R/R WM, one of 2 patients, at 80 mg), the “patients with minor response” value worked out at 50%. Besides, the “reduction in SPD from baseline” value in experiment [1] (monotherapy, patients with R/R NHL) is listed as “significant reduction in SPD form baseline were seen in most patients; also recorded: significant reduction in SPD from baseline were seen in most patients”. Moreover, the “reduction in absolute lymphocyte count (ALC)” value in experiment [1] (patients with CLL during ramp-up, monotherapy and combination therapy, seen at dose levels as low as 1 mg) is “significant reduction in absolute lymphocyte count (ALC) was noted among all patients with CLL during ramp-up”. Also, the “blood MRD (minimal residual disease) negativity” value in experiment [1] (patients with CLL, monotherapy or combination with Zanubrutinib) was “negativity was observed in 160 mg cohorts after 6 months treatment but not in 40 mg and 80 mg cohorts”.

In the case of `CC1(C)CCC(CN2CCN(c3ccc(C(=O)NS(=O)(=O)c4ccc(NCC5CCOCC5)c([N+](=O)[O-])c4)c(Oc4cnc5[nH]ccc5c4)c3)CC2)=C(c2ccc(Cl)cc2)C1` [Venetoclax, reference compound], the figures for the “Mean Tumor Volume (Day 10) (mm^3 ± SEM)” value in experiment [2] (15 mg/kg QD × 10 p.o.), in experiment [2] (50 mg/kg QD × 10 p.o.) and in experiment [2] (100 mg/kg QD × 10 p.o.) were 976.6 ± 64.0 mm^3, 711.8 ± 49.7 mm^3 and 530.4 ± 75.4 mm^3, respectively. Besides, the “TGI (Day 10)” value in experiment [2] (15 mg/kg QD × 10 p.o.) was determined as 44%; in experiment [2] (50 mg/kg QD × 10 p.o.), 65%; in experiment [2] (100 mg/kg QD × 10 p.o.), 80%.
